Measurements reported in patent US20260007712A1, “COMPOSITION FOR PREVENTING, AMELIORATING OR TREATING PERIODONTAL DISEASES” (NUTRACORE CO., LTD., priority 2022, published 2026).

Key:
Assay type in all cases: in vivo
[1] = system: periodontal bone loss (alveolar bone loss); test: Periodontal bone loss rate, tooth neck ligation rat periodontal disease (EPD) model; details: EPD rats; extracts 200 mg/kg, IND 5 mg/kg, oral once daily for 10 days from 24 h after ligation; FIG. 3
Description: (§1) In this study, as part of the development of functional food ingredients derived from natural products to improve periodontitis and periodontal bone damage, three types of natural product extracts, dried rehmanniae radix, wasabi leaf, and Sancho extracts, that are well known for various physiological activities, including anti-inflammatory and antioxidant effects were compared and explored using a tooth neck ligation rat periodontal disease (experimental periodontitis; EPD) model to investigate the efficacy against periodontitis and periodontal bone loss.
(§2) Specifically, a total of 121 SPF/VAF Outbred Crl:CD [SD] male rats (OrientBio, Seungnam, Korea) were obtained, and after acclimatization for 7 days, experimental animals with a constant body weight were selected, and 10 animals per group were divided and tested in 7 groups below (normal medium control group: average 248.90±8.23 g, 236.00˜261.00 g; EPD-induced group: average 248.14±9.85 g, 219.00˜272.00 g). […]
(§3) Daily body weight was measured from 1 day before ligation, periodontal bone loss rate was measured on the final sacrifice day, some gingival tissue was extracted, changes in IL-1β, TNF-α, and MDA content were observed. The number of infiltrating inflammatory cells in the gingival tissue, periodontal bone volume (alveolar bone volume), and collagen content in the gums were measured.

[2] = system: periodontal bone mass (alveolar bone volume); test: Periodontal bone mass (alveolar bone volume), EPD rat model; details: EPD rats; extracts 200 mg/kg, IND 5 mg/kg, oral once daily for 10 days; FIG. 4
Description: as §1, §2, §3

[3] = system: infiltrating inflammatory cells in gingival tissue; test: Number of infiltrating inflammatory cells in gingival tissue, EPD rat model; details: EPD rats; extracts 200 mg/kg, IND 5 mg/kg, oral once daily for 10 days; FIG. 5
Description: as §1, §2, §3

[4] = system: collagen fibers in gingival tissue; test: Collagen fiber content in gingival tissue, EPD rat model; details: EPD rats; extracts 200 mg/kg, IND 5 mg/kg, oral once daily for 10 days; FIG. 6
Description: as §1, §2, §3

[5] = system: IL-1β; test: IL-1β content in gingival tissue, EPD rat model; details: EPD rats; extracts 200 mg/kg, IND 5 mg/kg, oral once daily for 10 days; top of FIG. 7
Description: as §1, §2, §3

[6] = system: TNF-α; test: TNF-α content in gingival tissue, EPD rat model; details: EPD rats; extracts 200 mg/kg, IND 5 mg/kg, oral once daily for 10 days; bottom of FIG. 7
Description: as §1, §2, §3

[7] = system: MDA; test: MDA content in gingival tissue, EPD rat model; details: EPD rats; extracts 200 mg/kg, IND 5 mg/kg, oral once daily for 10 days; FIG. 8
Description: as §1, §2, §3

In the case of `COc1ccc2c(c1)c(CC(=O)O)c(C)n2C(=O)c1ccc(Cl)cc1` [IND, Indomethacin], the “change in periodontal bone loss rate compared to the EPD control group” value [1] was −26.49%, the “change in periodontal bone mass compared to the EPD control group” value [2] was 188.14% and the “change in number of infiltrating inflammatory cells in gingival tissue compared to the EPD control group” value [3] was −57.61%. The “change in proportion of collagen fibers in gingival tissue compared to the EPD control group” value [4] was 148.65%, the “change in IL-1β content in gingival tissue compared to the EPD control group” value [5] was −54.75% and the “change in TNF-α content in gingival tissue compared to the EPD control group” value [6] was −50.46%. For the same compound, the “change in MDA content in gingival tissue compared to the EPD control group” value [7] was −42.44%.
